Data reported in US20170165253A1, “TREATMENT OF SEXUAL DYSFUNCTION AND FOR IMPROVED SEXUAL QUALITY OF LIFE” (ReJoy, priority 2015, published 2017).
Where a name gives a salt, the structure may show the parent alone.

Tested on: nipple areole complex
Assay: Pilot dose study of nipple erection and sensitivity, topical phenylephrine (Example 3)
Type: in vivo, human
Settings: 10% topical solution
Method: A pilot study was conducted to assess the dosage of topical phenylephrine solution required to elicit nipple erection and sensitivity. […] Two subjects were post-menopausal and the reminder three were pre-menopausal. Subjects were not hypertensive, pregnant or breastfeeding. Three formulations were used: Formula A: 0% topical phenylephrine hydrochloride solution; Formula B: 5% topical phenylephrine hydrochloride solution; Formula C: 10% topical phenylephrine hydrochloride solution.
The study was conducted over 3 days. On day 1, subjects were instructed to apply on the left nipple Formula A and on the right nipple Formula B. On day 2, subjects were instructed to apply on the left nipple Formula A and on the right nipple Formula C. On day 3, subjects were instructed to apply on the left nipple Formula B and on the right nipple Formula C. 0.1 mL of each formula was applied with a cotton swab to the nipple areole complex. […] With the 10% topical phenylephrine solution, response in nipple erection and sensitivity was obtained in less than 30 minutes and lasted for 3-4 hours.

CNC[C@H](O)c1cccc(O)c1 [Phenylephrine HCl, Phenylephrine Hydrochloride]
duration of response in nipple erection and sensitivity: 3 to 4 h
time to response in nipple erection and sensitivity: less than 30 minutes
